The values below come from US10117948B2, “Selective arylation of dichalcogenides in biomolecules” (priority 2015, dated 2018).

The test system of data set [1] is BT-474 cells (mammary gland cancer cells). The data set is described as follows: Screening of genistein antibody-drug conjugate against BT-474 cells. It is filed as cell-based. The following applies: tested as ADC of genistein. From the text:
An antibody-drug conjugate (ADC) of genistein was screened against BT-474 cells (mammary gland cancer cells).

The conditions of data set [2]: cited from earlier work.
Data set [3] concerns E. faecalis VRE (Van B) (MMX 202, ATCC 51299). The data set is described as follows: MIC screening, vancomycin vs vancomycin/peptide conjugates. The settings on record: Enterococcus faecalis. It is filed as cell-based. From the text: (§1) Vancomycin was conjugated to a variety of antibacterial peptides and screened against (a) resistant strains of gram-positive bacteria and b) gram-negative bacteria. See FIG. 20, FIG. 21, FIG. 22, and Table 3.

Data set [4] relates to K. pneumoniea PSSP (MMX 1195, ATCC 49619). The data set is described as above. The class given is cell-based.
From the text: as §1

The test system of data set [5] is E. faecalis VSE: QC (MMX 101, ATCC 29212). The data set is described as above. It is filed as cell-based. The following applies: Enterococcus faecalis, ATCC29212.
From the text: as §1

Data set [6] has as its system K. pneumoniea KPC-1 (MMX 6902, ATCC BAA-1705). The description is as above. The class given is cell-based.
From the text: as §1

Data set [7] deals with E. faecalis VRE (Van A) (MMX 486). Described as above. The class given is cell-based. The following applies: Enterococcus faecalis.
From the text: as §1

Data set [8] concerns A. baumannii Wild-type (MMX 1630, ATCC 19606). The data set is described as above. The class given is cell-based. The settings on record: Acinetobacter baumannii, ATCC19606.
From the text: as §1

The test system of data set [9] is gram-positive bacteria and gram-negative bacteria. The settings on record: due to the outer cell membrane; cited from earlier work.

≈ marks a conversion by molar mass, not a printed value.

In general, pKa refers to the negative logarithm of the acid dissociation constant. In the case of `N[C@@H](C[SeH])C(=O)O` [selenocysteine], the toxicity to cells result in data set [1] is listed as “not toxic to cells”. Also, in [2], the pKa is on record as 5.47.
As for `N[C@@H](CS)C(=O)O` [cysteine], in data set [2], the pKa is 8.14.
What is called MIC is the smallest concentration in the dilution series that meets the test's criterion for growth inhibition. Low values mean a more susceptible organism, high ones a less susceptible organism. Take `CN[C@H](CC(C)C)C(=O)N[C@H]1C(=O)N[C@@H](CC(N)=O)C(=O)N[C@H]2C(=O)N[C@H]3C(=O)N[C@H](C(=O)N[C@H](C(=O)O)c4cc(O)cc(O)c4-c4cc3ccc4O)[C@H](O)c3ccc(c(Cl)c3)Oc3cc2cc(c3O[C@@H]2O[C@H](CO)[C@@H](O)[C@H](O)[C@H]2O[C@H]2C[C@](C)(N)[C@H](O)[C@H](C)O2)Oc2ccc(cc2Cl)[C@H]1O` [vancomycin]: the MIC is 16 µg/mL (≈ 11 µM) in data set [3]; 0.25 µg/mL (≈ 0.173 µM) in data set [4]; 4 µg/mL (≈ 2.76 µM) in data set [5]; over 64 µg/mL in data set [6]; over 64 µg/mL in data set [7]; over 64 µg/mL in data set [8]. For the same compound, the “activity against gram-negative bacteria” value in [9] is “not active”.
